Experimental data reported in ChEMBL document CHEMBL1139274, “Synthesis and evaluation of electron-rich curcumin analogues” (Bioorg Med Chem, 2009).

What was measured:
MCF7 = assay: Antiproliferative activity against human MCF7 cells after 72 hrs by MTS-PMS assay; type: functional, cell-based; conditions: MCF7, 72 h
SK-BR-3 = assay: Antiproliferative activity against human SKBR3 cells after 72 hrs by MTS-PMS assay; type: functional, cell-based; conditions: SK-BR-3, 72 h

Structure (SMILES)	IC50 (MCF7)	IC50 (SK-BR-3)
COc1ccc(/C=C/C(=O)C(C)C(=O)/C=C/c2ccc(OC)c(OC)c2)cc1OC	1.09 µM	1.02 µM
COc1ccc(/C=C/c2n[nH]c(/C=C/c3ccc(OC)c(OC)c3)c2C)cc1OC	8.16 µM	> 100 µM
COC(=O)/C=C/c1c(/C=C/c2ccc(OC)c(OC)c2)n[nH]c1/C=C/c1ccc(OC)c(OC)c1	49.5 µM	> 100 µM
CCOc1ccc(/C=C/c2n[nH]c(/C=C/c3ccc(OCC)c(OC)c3)c2/C=C/C(=O)OC)cc1OC	11.4 µM	5.99 µM
COc1ccc(/C=C/c2cc(/C=C/c3ccc(OC)c(OC)c3)on2)cc1OC	59.5 µM	> 100 µM
COc1ccc(/C=C/c2n[nH]c(/C=C/c3ccc(OC)c(OC)c3)c2/C=C/CO)cc1OC	> 100 µM	> 100 µM
COc1ccc(/C=C/c2noc(/C=C/c3ccc(OC)c(OC)c3)c2C)cc1OC	55.7 µM	42.5 µM
COc1ccc(/C=C/c2cc(/C=C/c3ccc(OC)c(OC)c3)[nH]n2)cc1OC	12.7 µM	1.58 µM
CCOC(=O)/C=C/C(C(=O)/C=C/c1ccc(OC)c(OC)c1)C(=O)/C=C/c1ccc(OC)c(OC)c1	1.28 µM	1.96 µM
COc1ccc(/C=C/C(=O)C(/C=C/CO)C(=O)/C=C/c2ccc(OC)c(OC)c2)cc1OC	0.796 µM	1.24 µM
COC(=O)/C=C/C(C(=O)/C=C/c1ccc(OC)c(OC)c1)C(=O)/C=C/c1ccc(OC)c(OC)c1	0.512 µM	0.564 µM
CCOC(=O)CCC(C(=O)/C=C/c1ccc(OC)c(OC)c1)C(=O)/C=C/c1ccc(OC)c(OC)c1	> 100 µM	> 100 µM
COc1ccc(/C=C/C(=O)C(/C=C/C(N)=O)C(=O)/C=C/c2ccc(OC)c(OC)c2)cc1OC	5.35 µM	9.83 µM
COc1ccc(/C=C/C(=O)CC(=O)/C=C/c2ccc(OC)c(OC)c2)cc1OC [TETRAMETHOXYCURCUMIN]	1.07 µM	0.955 µM

Continued, values first:

IC50 (MCF7)	IC50 (SK-BR-3)	Structure (SMILES)
1.76 µM	4 µM	COc1cc(/C=C/c2cc(/C=C/c3ccc(O)c(OC)c3)on2)ccc1O
> 100 µM	> 100 µM	CCOC(=O)CCc1c(/C=C/c2ccc(OC)c(OC)c2)noc1/C=C/c1ccc(OC)c(OC)c1
10.1 µM	11.7 µM	CCOC(=O)CCc1c(/C=C/c2ccc(OC)c(OC)c2)n[nH]c1/C=C/c1ccc(OC)c(OC)c1
1.96 µM	4.38 µM	CCOC(=O)CCC(C(=O)/C=C/c1ccc(O)c(OC)c1)C(=O)/C=C/c1ccc(O)c(OC)c1
6.01 µM	5.6 µM	CCOC(=O)CCc1c(/C=C/c2ccc(O)c(OC)c2)n[nH]c1/C=C/c1ccc(O)c(OC)c1
13.2 µM	13.9 µM	CCOC(=O)CCc1c(/C=C/c2ccc(O)c(OC)c2)noc1/C=C/c1ccc(O)c(OC)c1
39.9 µM	52.6 µM	COc1ccc(/C=C/c2n[nH]c(/C=C/c3ccc(OC)c(OC)c3)c2/C=C/C(N)=O)cc1OC
4.19 µM	0.258 µM	COc1cc(/C=C/c2cc(/C=C/c3ccc(O)c(OC)c3)[nH]n2)ccc1O [CURCUMIN PYRAZOLE]
5.58 µM	2.11 µM	COc1cc(/C=C/C(=O)CC(=O)/C=C/c2ccc(O)c(OC)c2)ccc1O [CURCUMIN]
